For 4 compounds, RC50 results are on record in ChEMBL document CHEMBL1148904, “Iridoid glycosides from Eremostachys glabra” (J Nat Prod, 2004).

For the assay, the system named is Radical scavenging activity. Kind of assay: Antioxidant activity assessed as DPPH radical scavenging activity after 30 mins. The format is functional. For orientation: The DPPH test is a chemical assay of radical scavenging.
Turning to `COC(=O)C1=CO[C@@H](O[C@@H]2O[C@H](CO)[C@@H](O)[C@H](O)[C@H]2O)[C@@H]2[C@@H]1[C@@H](O)C[C@]2(C)OC(C)=O`, the RC50 stood at 1.1 ×10⁻¹ mg/ml.
Next, `COC(=O)C1=CO[C@@H](O[C@@H]2O[C@H](CO)[C@@H](O)[C@H](O)[C@H]2O)[C@H]2[C@H](C)C[C@@H](O)[C@@]12O`: 4.9 ×10⁻¹ mg/ml; `O=c1c(O)c(-c2ccc(O)c(O)c2)oc2cc(O)cc(O)c12`: 2.88 ×10⁻⁵ mg/ml.
Regarding `COC(=O)C1=CO[C@@H](O[C@@H]2O[C@H](CO)[C@@H](O)[C@H](O)[C@H]2O)[C@H]2C(C)=C[C@@H](O)[C@@]12O`, the RC50 turned out to be 4.1 ×10⁻¹ mg/ml.
